This is an account of results in publication PMC6163455 (Biomolecules, 2018).

Experiment [1] deals with CHO-K1 cells. In words: live-cell confocal microscopy of β-lactamase internalization. In kind it is cell-based, Chinese hamster. To be noted: 4 µM conjugate with SpyC_BLA or unconjugated SpyC_BLA, 2 h, CCF2-AM 2 µM 1 h, Figure 2a–f. As for the experimental part:
(§1) Figure 2 Live-cell confocal microscopy visualizes CPP-mediated β-lactamase internalization. The CPP-mediated uptake of CPP_SpyT/SpyC_BLA conjugates (4 µM) was visualized in CHO-K1 cells (a–f) and T47D cells (g–n). SpyC_BLA was conjugated to CPP_SpyT peptides. […] The degree of uptake is CPP-dependent and visualized by blue fluorescing cells. Bar scale is 50 µm (a–j) or 14.6 µm (k–n).
(§2) Cells were seeded (CHO-K1, 37,500 cells/mL; T47D 37,500 cells/mL) onto 4-well ibiTreat chamber slides (Thermo Fisher Scientific) and incubated for 48 h at 37 °C, 5% CO2. The medium was removed and replaced with medium containing SpyC_BLA/CPP_SpyT conjugated or unconjugated SpyC_BLA proteins and cells were incubated for 2 h at 37 °C, 5% CO2. After incubation, the cells were washed to remove any SpyC_BLA protein that had not internalized, loaded with substrate CCF2-AM (2 µM final concentration in media containing 1% FCS), and incubated for 1 h at room temperature. Live cells were visualized through confocal microscopy. Images were collected using a Nikon C2 Confocal Microscope through a 40× differential interference contrast (DIC) objective after excitation by a 408 nm laser. Bar scales in images represent 50 µm or 14.6 µm (zoom magnification 3.4×).

Experiment [2] relates to T47D cells. The description is as above. Type of experiment: cell-based, human. To be noted: 4 µM conjugate with SpyC_BLA or unconjugated SpyC_BLA, 2 h, CCF2-AM 1 h, Figure 2g–n. As for the experimental part:
as §1, §2

Experiment [3] concerns CHO-K1 cells. In words: β-lactamase internalization assay (CCF2-AM, flow cytometry). Type of experiment: cell-based, Chinese hamster. The method, then: The β-lactamase internalization assay is based on the simple principle that CPP-dependent intracellular delivery of recombinant β-lactamase protein can be detected by cleavage of the CCF2 substrate in the cytosol (Figure 1a). In brief, CPP sequences and the β-lactamase cargo protein can be brought together by conjugation or can be recombinantly expressed as a CPP_β-lactamase (CPP_BLA) fusion (Figure 1a, step i). The CPP_BLA protein fusions or conjugates are incubated on cells, which are then washed to remove excess protein that has not internalized (Figure 1a, step ii). The cells are incubated further (i.e., loaded) with the CCF2-AM cell-permeable dye for 1 h (Figure 1a, step iii). […] This reaction is measured as a shift in fluorescent signal from green to blue. […]
(§3) To validate the assay, we first used a conjugation approach based on the SpyTag (SpyT) peptide/SpyCatcher (SpyC) protein ligation technology. […] Protein conjugates were incubated on CHO-K1 or T47D cells, measuring the fluorescence shift as percentage of blue fluorescent CHO-K1 or T47D cells after 1 h (Figure 1b,c, respectively). […]
The two phylomer CPPs with the strongest β-lactamase internalization signal and the canonical CPP TAT (positive control) were expressed as direct fusions with β-lactamase (CPP_BLA proteins; sequences in Table A2). […]

The subject of experiment [4] is T47D cells. Described as above. In kind it is cell-based, human. To be noted: CPP_SpyT/SpyC_BLA conjugates or unconjugated SpyC_BLA, 1 h at 37 °C, CCF2-AM 1 µM, Figure 1c, No CPP control n = 3. As for the experimental part:
The β-lactamase internalization assay is based on the simple principle that CPP-dependent intracellular delivery of recombinant β-lactamase protein can be detected by cleavage of the CCF2 substrate in the cytosol (Figure 1a). In brief, CPP sequences and the β-lactamase cargo protein can be brought together by conjugation or can be recombinantly expressed as a CPP_β-lactamase (CPP_BLA) fusion (Figure 1a, step i). The CPP_BLA protein fusions or conjugates are incubated on cells, which are then washed to remove excess protein that has not internalized (Figure 1a, step ii). The cells are incubated further (i.e., loaded) with the CCF2-AM cell-permeable dye for 1 h (Figure 1a, step iii). Once inside the cell, CCF2-AM is converted by endogenous cytoplasmic esterases to CCF2, which is retained in the cytosol. In cells where β-lactamase has internalized through CPP activity, CCF2 is cleaved by β-lactamase (Figure 1a, step iv). This reaction is measured as a shift in fluorescent signal from green to blue. […]
as §3

In experiment [5] the test system is CHO-K1 cells. The experiment in a line: cell fractionation and anti-β-lactamase immunoblotting. Type of experiment: cell-based, Chinese hamster. The following applies: 8 µM, 1.5 h at 37 °C, digitonin cytosol extraction, 4 µg aliquots, anti-β-lactamase antibody, Figure S1. The method, then:
Supplementary Information
Supplementary Figures: β-Lactamase Tools for Establishing Cell Internalization and Cytosolic
Delivery of Cell Penetrating Peptides
Figure S1. Verification of cell penetrating peptides (CPP)-mediated β-lactamase internalization by immunoblotting. MW: molecular weight.
Aliquots (4 µg) of cytosolic and membrane soluble CHO-K1 cell fractions from β-lactamase assays were separated by sodium dodecyl sulfate–polyacrylamide gel electrophoresis (SDS-PAGE) through a 4-12% (w/v) polyacrylamide Bis-Tris gel, transferred to polyvinylidene difluoride (PVDF) membrane, and immunoblotted. β-lactamase conjugated (e.g., 1746_SpyT/SpyC_BLA) or fused (e.g., 1746_BLA recombinant) to 1746c27 and 1746 Phylomer cell penetrating peptides (CPPs) was detected in the cytosolic fraction to varying extents, while TAT-conjugated β-lactamase was predominantly detected in the membrane fraction of cell lysates. […]
delivered into the cytosol by the 1746 CPP. Internalization of unconjugated SpyC_BLA protein was not detected, either on its own (SpyC_BLA (no CPP)) or in the presence of 1746c27 peptide (1746c27, SpyC_BLA), illustrating there is no bystander uptake effect. […]
Aliquots of extracted fractions (4 µg) were separated through a 4–12% Bis-Tris gel (Invitrogen, Carlsbad, CA, USA). Protein expression in the fractions was detected using monoclonal anti-β- […]

For the substance “GRKKRRQRRRGASAHIVMVDAYKPTKG [TAT_SpyT, reference compound]”, the “uptake of SpyC_BLA visualized by blue fluorescing cells” value (from here on “uptake of SpyC_BLA visualized”) in experiment [1] and in experiment [2] was “enabled CPP-dependent uptake of SpyC_BLA” in each case.
On to “KKKKQPPKPKKPKTQEKKKKQPPKPKRGASAHIVMVDAYKPTKG [1746c27_SpyT, phylomer CPP 1746c27 synthesized as SpyTag fusion]”, for which the “uptake of SpyC_BLA visualized” value in experiment [1] and in experiment [2] was “enabled CPP-dependent uptake of SpyC_BLA” each time.
As for “PLKPKKPKTQEKKKKQPPKPKKPKTQEKKKKQPPKPKRGASAHIVMVDAYKPTKG [1746_SpyT, phylomer CPP 1746 synthesized as SpyTag fusion]”, the “uptake of SpyC_BLA visualized” value in experiment [1] and in experiment [2] was “enabled CPP-dependent uptake of SpyC_BLA” each time.
Take “PLTQRTLQRGKKPKQRQNWKKARTSSAKTAPKTVVSRTTSQRKGASAHIVMVDAYKPTKG [0169_SpyT, phylomer CPP 0169 synthesized as SpyTag fusion]”: in experiment [1], the “uptake of SpyC_BLA visualized” value is recorded as “enabled CPP-dependent uptake of SpyC_BLA”.
Same read-out and setting: to “RKQKSLQTKLAENPPVPRKKRQSRPRWKQWLQKGASAHIVMVDAYKPTKG [0084_SpyT, phylomer CPP 0084 synthesized as SpyTag fusion]” belongs “enabled CPP-dependent uptake of SpyC_BLA”.
As to “SpyC_BLA: recombinantly expressed SpyCatcher_β-lactamase protein; unconjugated it is the 'No CPP' negative control”, the “internalization of CPP-conjugated SpyC_BLA (percentage of blue viable cells)” value in experiment [3] (CPP_SpyT/SpyC_BLA conjugates or unconjugated SpyC_BLA, 0.5–4 µM, 1 h at 37 °C, CCF2-AM 2 µM, Figure 1b, No CPP control n = 7) is “does not internalize”; in experiment [4], “does not internalize”. Also, the “internalization of recombinantly expressed CPP_β-lactamase fusion protein (percentage of blue viable cells)” value in experiment [3] (recombinant CPP_BLA fusion proteins, SpyC_BLA as negative control, Figure 1d) is reported as “does not internalize”. Also, the “uptake of SpyC_BLA visualized” value in experiment [1] and in experiment [2] was “minimal evidence of internalization” each time. Besides, in experiment [5], the “β-lactamase detected in cytosolic and membrane cell fractions (immunoblot)” value is listed as “not detected”.
